Read-outs that look alike come from different tables or passages of the source.
Assays:
HSV-1 (strain F, VR-733) [1] = assay: CPE inhibition antiviral assay, HSV-1; assay type: cell-based, herpes simplex virus (HSV)-1; details: Human alphaherpesvirus 1, 72 h, inhibition of virus-induced cytopathic effect by 50%, MTT readout, 3 days
Experimental: (§1) All the final compounds 3a–f and 4a–g were assayed for their antiviral activity against several herpes viruses such as HSV-1 (strain F, VR-733), HSV-2 (strain MS, VR-540), VZV (Ellen, VR-1367), and HCMV (Davis, VR-807). Cytotoxicity data were measured in HEL299 (CCL-137) cells as described previously. […] Antiviral activity was measured using a standard cytopathic (CPE) inhibition assay as described before. Briefly, Vero cells in stationary phase were infected with the virus at a multiplicity of infection of 2–4 CCID50 (50% cell culture inhibitory dose) per each well of 96-well plates. After 2 h of adsorption at 37 °C, the liquid was aspirated and 100 μL of Dulbeco’s modified eagle’s media (DMEM)/2% fetal bovine serum (FBS) containing a compound was applied to each well in duplicate for each concentration and further incubated for 3 days. Antiviral activity was measured by MTT assay and expressed as the EC50. Cytocidal assay was performed as a control experiment for the antiviral assay. It was carried out simultaneously with the antiviral assay described above using mock instead of virus for infection, and cell viability was measured by MTT assay. The concentration of the compound responsible for 50% reduction of cell growth was calculated and expressed as CC50.

[2] = system: HSV-2 (strain MS, VR-540); assay: CPE inhibition antiviral assay, HSV-2; assay type: cell-based; details: Human alphaherpesvirus 2, 72 h, inhibition of virus-induced cytopathic effect by 50%, MTT readout, 3 days
Experimental: as §1

VZV (Ellen, VR-1367) [3] = assay: CPE inhibition antiviral assay, VZV; assay type: cell-based, varicella-zoster virus (VZV); details: Human alphaherpesvirus 3; inhibition of virus-induced cytopathic effect by 50%; strain Ellen; MTT readout
Experimental: as §1

HCMV (Davis, VR-807) [4] = assay: CPE inhibition antiviral assay, HCMV; assay type: cell-based, human cytomegalovirus (HCMV); details: Human betaherpesvirus 5; inhibition of virus-induced cytopathic effect by 50%; strain Davis; MTT readout
Experimental: as §1

[5] = Cytotoxicity (cytocidal) assay, MTT; assay type: cell-based; details: human, 50% reduction of cell viability, mock infection
Experimental: as §1

HSV-1 (strain F, VR-733) [6] = system: HSV-1 (strain F, VR-733); design: method as in PMID 20466277; details: inhibition of virus-induced cytopathic effect by 50%, ref [11]; cited from earlier work
[7] = system: HSV-2 (strain MS, VR-540); design: method as in PMID 20466277; details: inhibition of virus-induced cytopathic effect by 50%, ref [11]; cited from earlier work
VZV (Ellen, VR-1367) [8] = system: VZV (Ellen, VR-1367); design: method as in PMID 20466277; details: inhibition of virus-induced cytopathic effect by 50%; strain Ellen; ref [11]; cited from earlier work
HCMV (Davis, VR-807) [9] = system: HCMV (Davis, VR-807); design: method as in PMID 20466277; details: inhibition of virus-induced cytopathic effect by 50%; strain Davis; ref [11]; cited from earlier work
HEL299 (CCL-137) cells = details: read-out: CC50 HEL299, 50% reduction of cell viability, ref [11]; cited from earlier work

Row | SMILES | EC50 (HSV-1 (strain F, VR-733) [1]) [µM] | EC50 [2] [µM] | EC50 (VZV (Ellen, VR-1367) [3]) [µM] | EC50 (HCMV (Davis, VR-807) [4]) [µM] | CC50 at 3 days ([5]; HEL299 (CCL-137) cells, mock-infected) [µM] | CC50 at 3 days ([5]; HEL299 cells) [µM] | melting point [°C] | EC50 (HSV-1 (strain F, VR-733) [6]) [µM] | EC50 [7] [µM] | EC50 (VZV (Ellen, VR-1367) [8]) [µM] | EC50 (HCMV (Davis, VR-807) [9]) [µM] | CC50 (HEL299 (CCL-137) cells) [µM]
1 | Nc1nc2c(ncn2COCCO)c(=O)[nH]1 [Compound 1, acyclovir, reference compound] | 0.66 | 1.02 | 6.4 | 18.9 |  |  |  |  |  |  |  | 
2 | Nc1nc(O)c2ncn(COC(CO)CO)c2n1 [Compound 2, ganciclovir, reference compound] | 0.9 | 1.4 | 11.1 | 2.14 | > 100 |  |  |  |  |  |  | 
3 | O=c1[nH]cnc2c1ncn2C[Se]CCO [Compound 3a, 9-((2-Hydroxyethylselanyl)methyl)-1H-purin-6-(9H)-one] | > 100 | > 100 | > 100 | > 100 |  | > 100 | 225 to 227 |  |  |  |  | 
4 | CNc1ncnc2c1ncn2C[Se]CCO [Compound 3b, 2-((6-(Methylamino)-9H-purin-9-yl)methylselanyl) ethanol] | > 100 | > 100 | > 100 | > 100 |  | > 100 | 171 to 173 |  |  |  |  | 
5 | Nc1ncnc2c1ncn2C[Se]CCO [Compound 3c, 2-((6-Amino-9H-purin-9-yl)methylselanyl)ethanol] | > 100 | > 100 | > 100 | > 100 |  | > 100 | 175 to 177 |  |  |  |  | 
6 | O=c1[nH]cnc2c1ncn2C[Se]C(CO)CO [Compound 3d, 9-((1,3-Dihydroxypropan-2-ylselanyl)methyl)-1H purin-6(9H)-one] | > 100 | > 100 | > 100 | > 100 |  | > 100 |  |  |  |  |  | 
7 | CNc1ncnc2c1ncn2C[Se]C(CO)CO [Compound 3e, 2-((6-(Methylamino)-9H-purin-9-yl)methylselanyl)propane-1,3-diol] | > 100 | > 100 | > 100 | > 100 |  | > 100 | 180 to 183 |  |  |  |  | 
8 | Nc1ncnc2c1ncn2C[Se]C(CO)CO [Compound 3f, 2-((6-Amino-9H-purin-9-yl)methylselanyl)propane-1,3-diol] | > 100 | > 100 | > 100 | 65.2 |  | > 100 | 186 to 188 |  |  |  |  | 
9 | Nc1nc2c(ncn2C[Se]CCO)c(=O)[nH]1 [Compound 4a, 9-((2-Hydroxyethylselanyl)methyl)-2-amino-1H purin-6(9H)-one] |  |  |  |  |  |  |  | 1.47 | 6.34 | > 100 | > 100 | > 100
10 | CNc1nc(N)nc2c1ncn2C[Se]CCO [Compound 4b, 2-((2-Amino-6-(methylamino)-9H-purin-9-yl)methylselanyl) ethanol] | 14.3 | 17.6 | > 100 | > 100 |  | > 100 | 183 to 185 |  |  |  |  | 
11 | Nc1nc(N)c2ncn(C[Se]CCO)c2n1 [Compound 4c, 2-((2,6-Diamino-9H-purin-9-yl)methylselanyl) ethanol] | 15.4 | 23.2 | > 100 | > 100 |  | > 100 | 84 to 86 |  |  |  |  | 
12 | Nc1nc2c(ncn2C[Se]C(CO)CO)c(=O)[nH]1 [Compound 4d, 9-((1,3-Dihydroxypropan-2-ylselanyl)methyl)-2-amino-1H-purin-6(9H)-one] |  |  |  |  |  |  |  | > 100 | > 100 | > 100 | 53.1 | > 100
13 | CNc1nc(N)nc2c1ncn2C[Se]C(CO)CO [Compound 4e, 2-((2-Amino-6-(methylamio)-9H-purin-9-yl)methylselanyl) propane-1,3-diol] | > 100 | > 100 | > 100 | 32.1 |  | > 100 | 140 to 143 |  |  |  |  | 
14 | Nc1nc(N)c2ncn(C[Se]C(CO)CO)c2n1 [Compound 4f, 2-((2,6-Diamino-9H-purin-9-yl)methylselanyl)propane-1,3-diol] | > 100 | > 100 | > 100 | 34.3 |  | > 100 | 193 to 196 |  |  |  |  | 
15 | Nc1nc(NC2CC2)c2ncn(C[Se]C(CO)CO)c2n1 [Compound 4g, 2-((2-Amino-6-(cyclopropylamino)-9H-purin-9-yl)methylselanyl)propane-1,3-diol] | > 100 | > 100 | > 100 | 41.1 |  | > 100 |  |  |  |  |  | 

From PMC6152377, “Structure-Activity Relationships of Acyclic Selenopurine Nucleosides as Antiviral Agents” (Molecules : A Journal of Synthetic Chemistry and Natural …, 2017)
